Test results: patent EP0550006B1, “Use of N-acyl derivatives of aminoalcohols for the manufacture of a medicament for the treatment of pathologies involving mast cells” (LIFEGROUP S.p.A., priority 1991, dated 1993)
No end group written: not given here.

Columns and labels:
[1] = tested on: mast cells; assay: in vivo mast cell degranulation induced by substance P, general subcutaneous administration; design: species or system Sprague Dawley rats; details: rat; compound 20 mg/kg subcutaneous, 30 minutes before substance P 10^-6 M s.c. in the auricular pinna; average of 500-800 cells; solvent group 12
Method: In this case 2-weeks old rats (Sprague Dawley, Charles River) were firstly subcutaneously treated with 20 mg/kg of the substances under question and after 30 minutes were exposed to the degranulation stimulus by s.c. administration of substance P (10^-6 M) in the auricular pinna. Then the rats were sacrificed and the ear pinna removed for histological assessment of mast cell degranulation by counting the number of degranulated mast cells.
The biological parameter of evaluation was the percentage of degranulated mast cells.
In Tab. 2 the obtained results are reported on an average of 500-800 cells.

[2] = water solubility; details: for solubility: water; for water solubility: result in words
[3] = organic solvent solubility; details: for solubility: organic solvent or mixture
[4] = tested on: Peritoneal mast cells of rat; assay: in vitro mast cell degranulation induced by substance P; format: cell-based; details: compound 10^-5 M, 30 minutes incubation, then substance P 10^-4M
Method: Peritoneal mast cells of rat were taken according to the standard methodology described by Lagunoff (1975, Tech. Biochem. Biophys. Morphol., 2, pp. 289-305).
The cells were then cultured in MEM which 10% fetal calf serum was added to and then incubated in a Haereus^R incubator for 30 minutes.
The derivatives under question at the concentration of 10^-5 M were added to the incubation medium.
At the end of the incubation, the physiological degranulation stimulus represented also in the case by the substance P (10^-4M) was added.
The cells were then centrifugated in order to remove the supernatant formed by the incubation medium and were placed onto a slide after coloration with toluidine blue, for the analysis of the morphological aspect at the optical microscope.
Also under these conditions the parameter to be considered was the percentage of degranulated cells after stimulation with the Substance P.

[5] = tested on: mast cells; assay: in vivo mast cell degranulation induced by substance P, intradermal (topical) application on the auricular pinna; design: species or system Sprague Dawley rats; details: for % of degranulated mast cells: rat auricular pinna, compound 0.5 mg/kg intradermal, 10 minutes before substance P 10^-4 M intradermal, sacrifice after 30', solvent group 8
Method: After 10 minutes a local administration of substance P ( 10^-4 M), able to induce a mast cells degranulation response, was carried out still by intradermal route. […] The inhibition degree in mast cells degranulation in the tissues of the animals treated with the compounds under question. in comparison with that of animals treated only with the physiological degranulation factor (substance P) was considered as a parameter for the biological activity.

[6] = tested on: inflammatory response; details: substance extracted from yolk egg, administered to man; Coburn et al 1960; cited from earlier work
[7] = tested on: human rheumatoid arthritis; details: Perlik et al. 1974; cited from earlier work
[8] = tested on: inflammatory response; details: tested animal; prior art; cited from earlier work
[9] = physchem; details: organic solvent or mixture

Row | Compound | solubility [2] [mg/mL] | solubility ([3]; ethanol) [mg/mL] | water solubility [2] | solubility ([3]; dmso) [mg/mL] | % of degranulated mast cells [1] [%] | other results
1 | CCCCCCCCCCCCCCCCCC(=O)NCCO [Example 4, N-(2-hydroxyethyl)-stearoylamide] |  |  |  |  | 60 | solubility ([9]; chloroform): > 5 mg/mL
2 | CCCCCCCCCCCC(=O)NCCO [Example 5, N-(2-hydroxyethyl)-lauroylamide] |  |  | poorly soluble | > 10 | 54 | solubility ([3]; chloroform): > 10 mg/mL
3 | CCCCCCCCCCCC(=O)N(CCO)CCO [Example 6, N,N-bis(2-hydroxyethyl)-lauroylamide] |  |  | poorly soluble | > 10 | 28 | solubility ([3]; chloroform): > 10 mg/mL
4 | O=C(NCCO)c1ccccc1 [Example 8, N-(2-hydroxyethyl)-benzoylamide] | > 10 | > 10 |  | > 10 | 48.8 | 
5 | O=C(c1ccccc1)N(CCO)CCO [Example 9, N,N -bis-(2-hydroxyethyl)-benzoylamide] | > 10 | > 10 |  | > 10 | 36.8 | 
6 | C[C@H](CCC(=O)NCCO)[C@H]1CC[C@H]2[C@@H]3CC[C@@H]4C[C@H](O)CC[C@]4(C)[C@H]3C[C@H](O)[C@]12C [Example 12, N-(2-hydroxyethyl)-desoxycholamide] |  |  |  |  |  | solubility ([9]; dmso): > 10 mg/mL
7 | O=C(NCCO)c1ccccc1O [Example 13, N-(2-hydroxethyl)-salicylamide] |  |  |  |  | 38 | 
8 | O=C(NCCO)c1ccncc1 [Example 14, N-(2-hydroxyethyl)-isonicotinamide] | > 10 |  |  |  |  | solubility ([3]; methanol): > 10 mg/mL
9 | substance P (RPKPQQFFGLM; ends and bridges not checked; UniProt P20366 58-68, looked up) [reference compound] |  |  |  |  | 92 | % of degranulated mast cells [4]: 96%; % of degranulated mast cells [5]: 94%; mast cells degranulation (morphological analysis) ([5]; rat pinna, intradermal, result in words): induced a degranulation in the majority of mast cells

More lines, main results first:

Row | solubility [2] [mg/mL] | solubility ([3]; ethanol) [mg/mL] | water solubility [2] | solubility ([3]; dmso) [mg/mL] | Compound | % of degranulated mast cells [1] [%] | other results
10 | > 10 | > 10 |  |  | O=C(CCCCC1CCSS1)NCCO (racemic) [Example 15, N-(2-hydroxyethy)-DL-α-lipoamide] | 40 | 
11 |  |  | insoluble |  | CCCCCCCCCCCCCCCC(=O)NCCO [Example 1, N-palmitoylethanolamide] | 65 | % of degranulated mast cells [4]: 52%; % of degranulated mast cells [5]: 50%; therapeutic effect [6]: not significant; therapeutic efficacy [7]: beneficial effects were not so remarkable; solubility in organic solvents ([3]; solvents in which soluble, in words): hot methanol, CHCl3, DMSO; inhibition of the inflammatory response [8]: generic activity in inhibiting the inflammatory response
12 |  |  | poorly soluble | > 10 | CCCCCCCCCCCCCCCC(=O)N(CCO)CCO [Example 2, N,N-bis(2-hydroxyethyl)-palmitamide] | 48 | % of degranulated mast cells [4]: 30%; % of degranulated mast cells [5]: 35%
13 |  |  | poorly soluble | > 3 | CCCCCCCCCCCCCCCC(=O)NCC(C)O (stereo not drawn) [Example 3, N-(2-hydroxypropyl)-palmitamide] | 49.5 | solubility ([3]; n-octanol): > 10 mg/mL
14 | > 10 | > 10 |  | > 10 | O=C(CCCO)NCCO [Example 7, N-(2-hydroxyethyl)-4-hydroxybutirramide] |  | 
15 |  |  | poorly soluble | > 10 | CCCCCCCC/C=C\CCCCCCCC(=O)N(CCO)CCO [Example 10, N,N -bis-(2-hydroxyethyl)-oleoylamide] | 44 | solubility ([3]; chloroform): > 10 mg/mL
16 |  | > 10 | poorly soluble |  | CCCCC/C=C\C/C=C\CCCCCCCC(=O)N(CCO)CCO [Example 11, N,N -bis-(2-hydroxyethyl)-linoleoylamide] | 71 | solubility ([3]; chloroform): > 10 mg/mL
